Measured values from patent publication US11306078B2, “Piperidine CXCR7 receptor modulators” (IDORSIA PHARMACEUTICALS LTD., priority 2016, dated 2022).

Target: human chemokine receptor CXCR7 (Homo sapiens (Human), UniProt P25106)
Experiment: Tango CXCR7-bla U2OS beta-arrestin recruitment assay (beta-lactamase reporter, FRET), antagonism of CXCL12/SDF1-α;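 note: compounds preincubated 15 min before CXCL12 addition, then 22 h at 37 °C, FRET emission ratio read with CCF4-AM substrate after 2 h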
Format: cell-based
Settings: antagonistic effect on CXCR7; Tango CXCR7-bla U2OS cells, CXCL12/SDF1-α at its EC80

Sequence of human chemokine receptor CXCR7 (P25106 whole entry): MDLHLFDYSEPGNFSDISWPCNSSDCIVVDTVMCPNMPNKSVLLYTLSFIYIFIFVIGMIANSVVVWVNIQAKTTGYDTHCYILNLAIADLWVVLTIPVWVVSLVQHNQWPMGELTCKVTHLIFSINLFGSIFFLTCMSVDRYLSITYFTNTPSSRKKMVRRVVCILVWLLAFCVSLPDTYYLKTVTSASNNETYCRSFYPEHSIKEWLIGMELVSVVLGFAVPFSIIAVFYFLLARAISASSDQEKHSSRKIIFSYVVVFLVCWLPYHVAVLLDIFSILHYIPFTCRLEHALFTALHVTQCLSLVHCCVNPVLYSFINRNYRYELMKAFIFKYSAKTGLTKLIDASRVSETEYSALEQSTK

Row | IC50 [nM] | SMILES
1 | 170 | O=C(N[C@@H]1CCN(CC2CC2)C[C@H]1C(=O)NC1(c2ccccn2)CC1)c1ncc(-c2ccc(F)cc2F)o1 (racemic) [Example 3.015, rac-(3R*,4R*)-1-Cyclopropylmethyl-4-{[5-(2,4-difluoro-phenyl)-oxazole-2-carbonyl]-amino}-piperidine-3-carboxylic acid (1-pyridin-2-yl-cyclopropyl)-amide]
2 | 105 | O=C(N[C@@H]1CCN(CC2CC2)C[C@H]1C(=O)NC1(c2ccccn2)CC1)c1nnc(-c2ccc(F)cc2F)o1 (racemic) [Example 3.016, rac-(3R*,4R*)-1-Cyclopropylmethyl-4-{[5-(2,4-difluoro-phenyl)-[1,3,4]oxadiazole-2-carbonyl]-amino}-piperidine-3-carboxylic acid (1-pyridin-2-yl-cyclopropyl)-amide]
3 | 661 | CN(C)C(=O)[C@@H]1CN(C2CCCC2)CC[C@H]1NC(=O)c1ncc(-c2ccc(F)cc2F)o1 (racemic) [Example 3.017, rac-(3R*,4R*)-1-Cyclopentyl-4-{[5-(2,4-difluoro-phenyl)-oxazole-2-carbonyl]-amino}-piperidine-3-carboxylic acid dimethylamide]
4 | 198 | CN(C)C(=O)[C@@H]1CN(C2CCCCC2)CC[C@H]1NC(=O)c1ncc(-c2ccc(F)cc2F)o1 (racemic) [Example 3.018, rac-(3R*,4R*)-1-Cyclohexyl-4-{[5-(2,4-difluoro-phenyl)-oxazole-2-carbonyl]-amino}-piperidine-3-carboxylic acid dimethylamide]
5 | 778 | CN(C)C(=O)[C@@H]1CN(C2CCCCC2)CC[C@H]1NC(=O)c1nc(-c2ccc(F)cc2F)no1 (racemic) [Example 3.019, rac-(3R*,4R*)-1-Cyclohexyl-4-{[3-(2,4-difluoro-phenyl)-[1,2,4]oxadiazole-5-carbonyl]-amino}-piperidine-3-carboxylic acid dimethylamide]
6 | 40 | O=C(N[C@@H]1CCN(CC2CC2)C[C@H]1C(=O)NC1(c2ncccn2)CC1)c1noc(-c2ccc(F)cc2)c1F (racemic) [Example 3.021, rac-(3R*,4R*)-1-Cyclopropylmethyl-4-{[4-fluoro-5-(4-fluoro-phenyl)-isoxazole-3-carbonyl]-amino}-piperidine-3-carboxylic acid (1-pyrimidin-2-yl-cyclopropyl)-amide]
7 | 857 | CN(C)C(=O)[C@]1(C)CN(C2CCCCC2)CC[C@H]1NC(=O)c1cc(-c2ccc(F)cc2F)on1 (racemic) [Example 5.002, rac-(3R*,4R*)-1-Cyclohexyl-4-{[5-(2,4-difluoro-phenyl)-isoxazole-3-carbonyl]-amino}-3-methyl-piperidine-3-carboxylic Acid Dimethylamide]
8 | 443 | CC(NC(=O)[C@@H]1CN(C2CCCCC2)CC[C@H]1NC(=O)c1cc(-c2ccc(F)cc2F)on1)C(F)F (relative stereo) [Example 1.077, (3R*,4R*)-1-Cyclohexyl-4-{[5-(2,4-difluoro-phenyl)-isoxazole-3-carbonyl]-amino}-piperidine-3-carboxylic acid ((1RS)-2,2-difluoro-1-methyl-ethyl)-amide]
9 | 193 | CC(NC(=O)[C@@H]1CN(C2CCCCC2)CC[C@H]1NC(=O)c1cc(-c2ccc(F)cc2F)on1)C1CCC1 (relative stereo) [Example 1.078, (3R*,4R*)-1-Cyclohexyl-4-{[5-(2,4-difluoro-phenyl)-isoxazole-3-carbonyl]-amino}-piperidine-3-carboxylic acid ((1RS)-1-cyclobutyl-ethyl)-amide]
10 | 445 | CC(CF)NC(=O)[C@@H]1CN(C2CCCCC2)CC[C@H]1NC(=O)c1cc(-c2ccc(F)cc2F)on1 (relative stereo) [Example 1.082, (3R*,4R*)-1-Cyclohexyl-4-{[5-(2,4-difluoro-phenyl)-isoxazole-3-carbonyl]-amino}-piperidine-3-carboxylic acid ((1RS)-2-fluoro-1-methyl-ethyl)-amide]

More lines, now with the values behind:

Row | SMILES | IC50 [nM]
11 | O=C(N[C@@H]1CCN(CC2CC2)C[C@H]1C(=O)NC1(c2ncccn2)CC1)c1noc(-c2ccc(F)cc2F)c1F (racemic) [Example 3.022, rac-(3R*,4R*)-1-Cyclopropylmethyl-4-{[5-(2,4-difluoro-phenyl)-4-fluoro-isoxazole-3-carbonyl]-amino}-piperidine-3-carboxylic acid (1-pyrimidin-2-yl-cyclopropyl)-amide] | 28
12 | O=C(N[C@@H]1CCN(C2CCCCC2)C[C@H]1C(=O)N1CCC(O)C1)c1cc(-c2ccc(F)cc2F)on1 (relative stereo) [Example 1.028, 5-(2,4-Difluoro-phenyl)-isoxazole-3-carboxylic acid [(3R*,4R*)-1-cyclohexyl-3-((3RS)-3-hydroxy-pyrrolidine-1-carbonyl)-piperidin-4-yl]-amide] | 916
13 | O=C(N[C@@H]1CCN(C2CCCCC2)C[C@H]1C(=O)NCC1CCCO1)c1cc(-c2ccc(F)cc2F)on1 (relative stereo) [Example 1.044, (3R*,4R*)-1-Cyclohexyl-4-{[5-(2,4-difluoro-phenyl)-isoxazole-3-carbonyl]-amino}-piperidine-3-carboxylic acid ((2RS)-tetrahydro-furan-2-ylmethyl)-amide] | 556
14 | CC(NC(=O)[C@@H]1CN(C2CCCCC2)CC[C@H]1NC(=O)c1cc(-c2ccc(F)cc2F)on1)c1ccncn1 (relative stereo) [Example 1.063, (3R*,4R*)-1-Cyclohexyl-4-{[5-(2,4-difluoro-phenyl)-isoxazole-3-carbonyl]-amino}-piperidine-3-carboxylic acid ((1RS)-1-(pyrimidin-4-yl)-ethyl)-amide] | 107
15 | O=C(N[C@@H]1CCN(C2CCCCC2)C[C@H]1C(=O)NC(c1ccccn1)C(F)(F)F)c1cc(-c2ccc(F)cc2F)on1 (relative stereo) [Example 1.069, (3R*,4R*)-1-Cyclohexyl-4-{[5-(2,4-difluoro-phenyl)-isoxazole-3-carbonyl]-amino}-piperidine-3-carboxylic acid ((1RS)-2,2,2-trifluoro-1-pyridin-2-yl-ethyl)-amide] | 556
16 | O=C(N[C@@H]1CCN(C2CCCCC2)C[C@H]1C(=O)NC[C@H](O)c1ccccc1)c1cc(-c2ccc(F)cc2F)on1 (relative stereo) [Example 1.072, (3R*,4R*)-1-Cyclohexyl-4-{[5-(2,4-difluoro-phenyl)-isoxazole-3-carbonyl]-amino}-piperidine-3-carboxylic acid ((R)-2-hydroxy-2-phenyl-ethyl)-amide] | 32
17 | O=C(N[C@@H]1CCN(C2CCCCC2)C[C@H]1C(=O)NC[C@@H](O)c1ccccc1)c1cc(-c2ccc(F)cc2F)on1 (relative stereo) [Example 1.073, (3R*,4R*)-1-Cyclohexyl-4-{[5-(2,4-difluoro-phenyl)-isoxazole-3-carbonyl]-amino}-piperidine-3-carboxylic acid ((S)-2-hydroxy-2-phenyl-ethyl)-amide] | 118
18 | CC(CO)NC(=O)[C@@H]1CN(C2CCCCC2)CC[C@H]1NC(=O)c1cc(-c2ccc(F)cc2F)on1 (relative stereo) [Example 1.076, (3R*,4R*)-1-Cyclohexyl-4-{[5-(2,4-difluoro-phenyl)-isoxazole-3-carbonyl]-amino}-piperidine-3-carboxylic acid ((1RS)-2-hydroxy-1-methyl-ethyl)-amide] | 604
